Values of other authors as cited in US20260256768A1, “DRY POWDER COMPOSITIONS OF BEDAQUILINE AND SALTS AND METHODS OF USE THEREOF” (Insmed Incorporated, priority 2022, published 2026).

Key:
[1] = system: MCF7 breast cancer cells-derived cancer stem-like cells
[2] = system: cancer metastasis; conditions: in vivo
[3] = system: non-small cell lung cancer cell lines; conditions: two non-small cell lung cancer cell lines
[4] = system: lung tumor; conditions: animal model

**Q.** Which results are given for `COc1nc2ccc(Br)cc2cc1[C@@H](c1ccccc1)[C@@](O)(CCN(C)C)c1cccc2ccccc12` [bedaquiline, (1R,2S)-1-(6-bromo-2-methoxyquinolin-3-yl)-4-(dimethylamino)-2-naphthalen-1-yl-1-phenylbutan-2-ol]?
**A.** effect on propagation and expansion of cancer stem-like cells [1]: block the propagation and expansion; effect on cancer metastasis [2]: inhibit cancer metastasis; cytotoxicity [3]: cytotoxic properties; effect on lung tumor growth and angiogenesis [4]: inhibit lung tumor growth and angiogenesis
